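48-hour exposure; five concentrations; linearly interpolated endpoints. At the GI50, growth is halved.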 Calls of active or inactive are those of the source. No stated cut-off is given here; in the data, active = GI50 up to about 1.1 µM and inactive = higher.
Assays:
Assay in all cases: NCI-60 cell line screen, 48 h
786-0 = test system: 786-0
A498 = test system: A498
A549 = test system: A549
ACHN = test system: ACHN
BT-549 = test system: BT-549
CAKI-1 = test system: CAKI-1
CCRF-CEM = test system: CCRF-CEM
COLO 205 = test system: COLO 205
DLD-1 = test system: DLD-1
DMS-114 = test system: DMS-114
DMS-273 = test system: DMS-273
DU-145 = test system: DU-145
EKVX = test system: EKVX
HCC 2998 = test system: HCC 2998
HCT-116 = test system: HCT-116
HCT-15 = test system: HCT-15
HL-60 = test system: HL-60
HOP-18 = test system: HOP-18
HOP-62 = test system: HOP-62
HOP-92 = test system: HOP-92
Hs-578T = test system: Hs-578T
IGROV-1 = test system: IGROV-1
KM-20L2 = test system: KM-20L2
LOX IMVI = test system: LOX IMVI
LXFL 529 = test system: LXFL 529
M14 = test system: M14
M19-MEL = test system: M19-MEL
MCF7 = test system: MCF7
MDA-MB-231 = test system: MDA-MB-231
MDA-MB-435 = test system: MDA-MB-435
MDA-N = test system: MDA-N
MOLT-4 = test system: MOLT-4
Malme-3M = test system: Malme-3M
NCI-H226 = test system: NCI-H226
NCI-H460 = test system: NCI-H460
NCI-H522 = test system: NCI-H522
OVCAR-4 = test system: OVCAR-4
OVCAR-5 = test system: OVCAR-5
OVCAR-8 = test system: OVCAR-8
PC-3 = test system: PC-3
RPMI-8226 = test system: RPMI-8226
RXF 393 = test system: RXF 393
RXF 631 = test system: RXF 631
SF-268 = test system: SF-268
SF-295 = test system: SF-295
SF-539 = test system: SF-539
SK-MEL-28 = test system: SK-MEL-28
SK-MEL-2 = test system: SK-MEL-2
SK-OV-3 = test system: SK-OV-3
SN12C = test system: SN12C
SNB-19 = test system: SNB-19
SNB-75 = test system: SNB-75
SNB-78 = test system: SNB-78
SR = test system: SR
SW-620 = test system: SW-620
T47D = test system: T47D
TK-10 = test system: TK-10
U-251 = test system: U-251
UACC-257 = test system: UACC-257
UACC-62 = test system: UACC-62
UO-31 = test system: UO-31
XF498 = test system: XF498
HT-29 = test system: HT-29
K562 = test system: K562
KM12 = test system: KM12
NCI-H23 = test system: NCI-H23
OVCAR-3 = test system: OVCAR-3
SK-MEL-5 = test system: SK-MEL-5

SMILES: CC1CC(C)CC(C)C(O)/C(C#N)=C/C=C/CC(C2CCCC2C(=O)O)OC(=O)CC(O)C(C)C1 (centres undefined)
- GI50 (786-0): < 0.0126 µM (active)
- GI50 (A498): 0.0105 µM (active)
- GI50 (A549): 0.053 µM (active)
- GI50 (ACHN): < 0.0194 µM (active)
- GI50 (BT-549): 0.0143 µM (active)
- GI50 (CAKI-1): < 0.01 µM (active)
- GI50 (CCRF-CEM): 0.0118 µM (active)
- GI50 (COLO 205): 0.0225 µM (active)
- GI50 (DLD-1): < 0.0122 µM (active)
- GI50 (DMS-114): < 0.01 µM (active)
- GI50 (DMS-273): 0.0164 µM (active)
- GI50 (DU-145): 0.111 µM (active)
- GI50 (EKVX): 0.064 µM (active)
- GI50 (HCC 2998): 0.0151 µM (active)
- GI50 (HCT-116): 0.0223 µM (active)
- GI50 (HCT-15): 0.0131 µM
- GI50 (HL-60): 0.0137 µM (active)
- GI50 (HOP-18): 0.0189 µM (active)
- GI50 (HOP-62): 0.0148 µM (active)
- GI50 (HOP-92): < 0.01 µM (active)
- GI50 (Hs-578T): < 0.01 µM (active)
- GI50 (IGROV-1): < 0.0118 µM (active)
- GI50 (KM-20L2): 0.0362 µM (active)
- GI50 (LOX IMVI): < 0.0109 µM (active)
- GI50 (LXFL 529): < 0.01 µM (active)
- GI50 (M14): < 0.0121 µM (active)
- GI50 (M19-MEL): 0.0202 µM (active)
- GI50 (MCF7): 0.0102 µM (active)
- GI50 (MDA-MB-231): < 0.0109 µM (active)
- GI50 (MDA-MB-435): < 0.01 µM (active)
- GI50 (MDA-N): < 0.0112 µM (active)
- GI50 (MOLT-4): 0.022 µM (active)
- GI50 (Malme-3M): 0.0286 µM (active)
- GI50 (NCI-H226): 0.0158 µM (active)
- GI50 (NCI-H460): 0.0284 µM (active)
- GI50 (NCI-H522): < 0.01 µM (active)
- GI50 (OVCAR-4): 0.0424 µM (active)
- GI50 (OVCAR-5): < 0.01 µM (active)
- GI50 (OVCAR-8): 0.0192 µM (active)
- GI50 (PC-3): 0.0251 µM (active)
- GI50 (RPMI-8226): < 0.0305 µM (active)
- GI50 (RXF 393): < 0.01 µM (active)
- GI50 (RXF 631): 0.0317 µM (active)
- GI50 (SF-268): 0.0133 µM (active)
- GI50 (SF-295): 0.0303 µM (active)
- GI50 (SF-539): < 0.01 µM (active)
- GI50 (SK-MEL-28): < 0.0111 µM (active)
- GI50 (SK-MEL-2): < 0.01 µM (active)
- GI50 (SK-OV-3): 0.0161 µM (active)
- GI50 (SN12C): 0.029 µM (active)
- GI50 (SNB-19): 0.0135 µM (active)
- GI50 (SNB-75): 0.0175 µM (active)
- GI50 (SNB-78): 0.0223 µM (active)
- GI50 (SR): < 0.0116 µM (active)
- GI50 (SW-620): 0.0335 µM (active)
- GI50 (T47D): < 0.01 µM (active)
- GI50 (TK-10): 0.0301 µM (active)
- GI50 (U-251): 0.0115 µM (active)
- GI50 (UACC-257): 0.0154 µM (active)
- GI50 (UACC-62): 0.0101 µM (active)
- GI50 (UO-31): 0.012 µM (active)
- GI50 (XF498): < 0.0164 µM (active)

SMILES: O=S(=O)(O)C1=C2Sc3ccccc3N=C2c2ccccc2C1
- GI50 (786-0): 17.5 µM (inactive)
- GI50 (A498): 18.6 µM (inactive)
- GI50 (A549): 16.2 µM (inactive)
- GI50 (ACHN): 12.5 µM (inactive)
- GI50 (CAKI-1): 20.1 µM (inactive)
- GI50 (CCRF-CEM): 3.43 µM (inactive)
- GI50 (COLO 205): 16.5 µM (inactive)
- GI50 (DLD-1): 15.3 µM (inactive)
- GI50 (DMS-114): 10.3 µM (inactive)
- GI50 (DMS-273): 15.5 µM (inactive)
- GI50 (EKVX): 13.8 µM (inactive)
- GI50 (HCC 2998): 12.2 µM (inactive)
- GI50 (HCT-116): 15.2 µM (inactive)
- GI50 (HCT-15): 13.6 µM
- GI50 (HL-60): 3.76 µM (inactive)
- GI50 (HOP-18): 12.4 µM (inactive)
- GI50 (HOP-62): 20.1 µM (inactive)
- GI50 (HOP-92): 10.3 µM (inactive)
- GI50 (HT-29): 20.3 µM (inactive)
- GI50 (IGROV-1): 14.3 µM (inactive)
- GI50 (K562): 10.5 µM (inactive)
- GI50 (KM-20L2): 18.4 µM (inactive)
- GI50 (KM12): 15.8 µM (inactive)
- GI50 (LOX IMVI): 12.4 µM (inactive)
- GI50 (LXFL 529): 12.2 µM (inactive)
- GI50 (M14): 12.7 µM (inactive)
- GI50 (MOLT-4): 4.88 µM (inactive)
- GI50 (Malme-3M): 15.8 µM (inactive)
- GI50 (NCI-H226): 20.3 µM (inactive)
- GI50 (NCI-H23): 16.4 µM (inactive)
- GI50 (NCI-H460): 19.5 µM (inactive)
- GI50 (NCI-H522): 16.7 µM (inactive)
- GI50 (OVCAR-3): 17.5 µM (inactive)
- GI50 (OVCAR-4): 16.8 µM (inactive)
- GI50 (OVCAR-5): 20.2 µM (inactive)
- GI50 (OVCAR-8): 16.9 µM (inactive)
- GI50 (RPMI-8226): 7.48 µM (inactive)
- GI50 (RXF 393): 19.5 µM (inactive)
- GI50 (RXF 631): 16 µM (inactive)
- GI50 (SF-268): 14.1 µM (inactive)
- GI50 (SF-295): 13.8 µM (inactive)
- GI50 (SF-539): 11.9 µM (inactive)
- GI50 (SK-MEL-28): 17.3 µM (inactive)
- GI50 (SK-MEL-2): 14.6 µM (inactive)
- GI50 (SK-MEL-5): 13.2 µM (inactive)
- GI50 (SK-OV-3): 29.2 µM (inactive)
- GI50 (SN12C): 13.8 µM (inactive)
- GI50 (SNB-19): 22.4 µM (inactive)
- GI50 (SNB-75): 18.5 µM (inactive)
- GI50 (SNB-78): 17.8 µM (inactive)
- GI50 (SR): 3.14 µM (inactive)
- GI50 (SW-620): 15.3 µM (inactive)
- GI50 (TK-10): 18.4 µM (inactive)
- GI50 (U-251): 12.5 µM (inactive)
- GI50 (UACC-257): 17.1 µM (inactive)
- GI50 (UACC-62): 13.2 µM (inactive)
- GI50 (UO-31): 19.4 µM (inactive)
- GI50 (XF498): 17.7 µM (inactive)

SMILES: C=CC/C=C/C/C=C/CCCCCCCc1cccc(O)c1C(=O)O
- GI50 (786-0): > 100 µM (inactive)
- GI50 (A549): 33 µM (inactive)
- GI50 (ACHN): 44.2 µM (inactive)
- GI50 (CAKI-1): 32.1 µM (inactive)
- GI50 (CCRF-CEM): 30.3 µM (inactive)
- GI50 (COLO 205): > 100 µM (inactive)
- GI50 (DLD-1): 35 µM (inactive)
- GI50 (DMS-114): > 100 µM (inactive)
- GI50 (DMS-273): 45.4 µM (inactive)
- GI50 (EKVX): 49 µM (inactive)
- GI50 (HCC 2998): 58.7 µM (inactive)
- GI50 (HCT-116): > 100 µM (inactive)
- GI50 (HCT-15): 48 µM
- GI50 (HL-60): > 100 µM (inactive)
- GI50 (HOP-18): 17.3 µM (inactive)
- GI50 (HOP-62): 14.4 µM (inactive)
- GI50 (HOP-92): 23.7 µM (inactive)
- GI50 (HT-29): 48.8 µM (inactive)
- GI50 (IGROV-1): 33.6 µM (inactive)
- GI50 (K562): 33.3 µM (inactive)
- GI50 (KM-20L2): 86.1 µM (inactive)
- GI50 (KM12): 64 µM (inactive)
- GI50 (LOX IMVI): 44.7 µM (inactive)
- GI50 (LXFL 529): 36.1 µM (inactive)
- GI50 (M14): 82.8 µM (inactive)
- GI50 (M19-MEL): 43.9 µM (inactive)
- GI50 (MOLT-4): 42.8 µM (inactive)
- GI50 (Malme-3M): 47.6 µM (inactive)
- GI50 (NCI-H23): 29.6 µM (inactive)
- GI50 (NCI-H460): 36.1 µM (inactive)
- GI50 (NCI-H522): 39.5 µM (inactive)
- GI50 (OVCAR-3): 35.4 µM (inactive)
- GI50 (OVCAR-4): 42.2 µM (inactive)
- GI50 (OVCAR-5): > 100 µM (inactive)
- GI50 (OVCAR-8): > 100 µM (inactive)
- GI50 (RPMI-8226): 40.2 µM (inactive)
- GI50 (RXF 631): > 100 µM (inactive)
- GI50 (SF-268): 24.3 µM (inactive)
- GI50 (SF-295): > 100 µM (inactive)
- GI50 (SF-539): 69.5 µM (inactive)
- GI50 (SK-MEL-28): 32.7 µM (inactive)
- GI50 (SK-MEL-2): 49 µM (inactive)
- GI50 (SK-OV-3): 25.2 µM (inactive)
- GI50 (SNB-19): 34.9 µM (inactive)
- GI50 (SNB-75): 43.4 µM (inactive)
- GI50 (SNB-78): > 100 µM (inactive)
- GI50 (SR): > 100 µM (inactive)
- GI50 (SW-620): 45.9 µM (inactive)
- GI50 (TK-10): 54.7 µM (inactive)
- GI50 (U-251): 19.7 µM (inactive)
- GI50 (UACC-257): 73.3 µM (inactive)
- GI50 (UACC-62): 31.1 µM (inactive)
- GI50 (UO-31): 25.2 µM (inactive)
- GI50 (XF498): > 100 µM (inactive)

— ChEMBL document CHEMBL1201862, “PubChem BioAssay data set” (2004)
